# According to ChEMBL document CHEMBL5226321, “Ivermectin: A Promising Therapeutic for Fighting Malaria. Current Status and Perspective” (J Med Chem, 2021):
# How the values were obtained:
# [1] = system: Aedes aegypti; assay: Insecticidal in Aedes aegypti larvae measured after 48 hrs; type: functional
# [2] = system: Anopheles gambiae; assay: Insecticidal in Anopheles gambiae assessed as mean survival fed with blood of compound treated human at 200 microg/kg relative to control; type: functional, organism-based; conditions: dose 200.0 µg/kg
# [3] = system: Anopheles arabiensis; assay: Insecticidal in Anopheles arabiensis assessed as percentage of mortality in 10 day survivorship fed with compound treated bovine blood at 73 mg observed for 24 weeks relative to control; type: functional, organism-based
# [4] = system: Anopheles sp.; assay: Insecticidal in Anopheles sp. infected with Plasmodium vivax assessed as percentage of survival midgut fed with blood isolated from compound treated parasite-infected human at 40 ng/ml observed after 7 days relative to control; type: functional, organism-based; conditions: time 7.0 day
# [5] = system: Anopheles arabiensis; assay: Insecticidal in Anopheles arabiensis assessed as mortality observed within 48 hrs after ingestion relative to control; type: functional, organism-based
# [6] = system: Anopheles sp.; assay: Insecticidal in Anopheles sp. infected with Plasmodium vivax assessed as mortality rate midgut fed with blood isolated from compound treated parasite-infected human observed after 7 days relative to control; type: functional, organism-based; conditions: time 7.0 day
# [7] = system: Aedes aegypti; assay: Insecticidal in Aedes aegypti assessed as lethal concentration membrane-fed with compound treated blood; type: functional, organism-based
# [8] = system: Anopheles sp.; assay: Insecticidal in Anopheles sp. assessed as mortality rate membrane-fed with blood of compound treated mouse at 600 microg/kg observed within 6 days relative to control; type: functional, organism-based; conditions: dose 600.0 µg/kg, time 6.0 day
# [9] = system: Culex quinquefasciatus; assay: Insecticidal in Culex quinquefasciatus assessed as mortality rate membrane-fed with compound treated human blood at 10 to 100 microg/mL observed within 7 days relative to control; type: functional, organism-based; conditions: dose 10-100 µg/ml, time 7.0 day
# [10] = system: Anopheles sp.; assay: Insecticidal in Anopheles sp. assessed as mortality rate fed with blood of compound treated human at 250 microg/kg administered once and observed for 3 days relative to control; type: functional, organism-based; conditions: dose 250.0 µg/kg, time 3.0 day
# [11] = system: Anopheles stephensi; assay: Insecticidal in Anopheles stephensi assessed as lethal concentration membrane-fed with compound treated blood; type: functional, organism-based
# [12] = system: Anopheles stephensi; assay: Insecticidal in Anopheles stephensi assessed as mortality rate with blood of compound treated mouse at 82 microg/kg observed within 36 hrs relative to control; type: functional, organism-based; conditions: dose 82.0 µg/kg
# [13] = system: Anopheles gambiae; assay: Insecticidal in Anopheles gambiae G3 assessed as reduction in survivorship fed with blood of compound treated human at 150 microg/kg administered once; type: functional, organism-based; conditions: dose 150.0 µg/kg
# [14] = system: Anopheles arabiensis; assay: Insecticidal in Anopheles arabiensis assessed as mean survival fed with blood of compound treated human at 12 mg, administered as a single dose observed at 2 days post treatment; type: functional, organism-based; conditions: time 2.0 day
sequence,measurement,setting,value
IVERMECTIN,LC50,[1],23.4 ppb
same,Survival,[2],2.3 days
same,mortality,[3],90%
same,Survival,[4],22%
same,mortality,[5],95%
same,mortality,[6],97.1%
same,MLC,[7],2.5 ppm
same,mortality,[8],44%
same,mortality,[9],100%
same,mortality,[10],80%
same,MLC,[11],1 ppm
same,mortality,[12],100%
same,LC50,[13],0.0224 µg/mL
same,Survival,[14],2.1 days
